Assay results as given in PMC10996807 (Research Square, 2024).
In brackets after ≈: the same amount, converted by molar mass.

Legend:
[1] = tested on: B. anthracis; test: microbe, parasite or virus in culture; type: cell-based; conditions: for MIC50 / MIC90: Bacillus anthracis
[2] = tested on: B. anthracis Sterne; type: cell-based, Bacillus anthracis
[3] = tested on: B. anthracis Ames NR3838 spores; set-up: species or system New Zealand White rabbits; conditions: rabbit, in vivo

Row | Molecule | MIC Range [1] | MIC50 [1] | MIC90 [1] | effect of washing on preformed supramolecular structures [2] | formation of supramolecular structures [2] | histopathology lesions ([3]; 12.5 mg/kg) | efficacious dose in rabbits ([3]; iv)
1 | C[C@H]1c2cccc(O)c2C(=O)C2=C(O)[C@]3(O)C(=O)C(C(N)=O)=C(O)[C@@H](N(C)C)[C@@H]3[C@@H](O)[C@@H]21 [Doxycycline] | ≤0.008 to 0.12 µg/mL | 0.03 µg/mL (≈ 0.0675 µM) | 0.06 µg/mL (≈ 0.135 µM) | – | – | – | –
2 | Lys(Bodipy FL)10-teixobactin | – | – | – | no apparent effect | apparent | – | –
3 | O=C(O)c1cn(C2CC2)c2cc(N3CCNCC3)c(F)cc2c1=O [Ciprofloxacin] | 0.06 to 4 µg/mL | 0.12 µg/mL (≈ 0.362 µM) | 0.5 µg/mL (≈ 1.51 µM) | – | – | – | –
4 | C[C@H]1COc2c(N3CCN(C)CC3)c(F)cc3c(=O)c(C(=O)O)cn1c23 [Levofloxacin] | 0.06 to 1 µg/mL | 0.12 µg/mL (≈ 0.332 µM) | 0.5 µg/mL (≈ 1.38 µM) | – | – | mitigated lesions | 12.5 mg/kg
5 | C[C@@H](O)[C@H]1C(=O)N2C(C(=O)O)=C(SCCN=CN)C[C@H]12 [Imipenem] | 0.03 to 1 µg/mL | 0.06 µg/mL (≈ 0.2 µM) | 0.12 µg/mL (≈ 0.401 µM) | – | – | – | –
